Counter-ions that a name gives are not always drawn.

These results are taken from patent US20080125453A1 (TIBER LABORATORIES, LLC, priority 2001, published 2008).

For data set [1] the following is noted: background statement; cited from earlier work.
The format of data set [2] is physicochemical. The protocol: The salt of the active ingredient, corresponding to an amount of free base present in a final batch size of 1 kg was dissolved in 100 ml of purified water. 120 ml of purified water was placed in a 600 ml beaker and stirred. While stirring, 3 g of MAS was added in small portions to obtain a dispersion. The amount of MAS used is a part of the total amount of MAS to be used in the formulation. Once the MAS was dispersed, tannic acid was added to the mixture and stirred to form a uniform dispersion. Three different batches of the MAS/tannic acid dispersion in purified water were prepared for each active. In the three batches, the amount of tannic acid used in the batch may vary from an amount equal to that of the free base, to two time to three times that of the free base present in the initial salt solution.
The salt solution was then added in small portions, under light stirring, to the MAS/Tannic acid dispersion. After all of the salt solution was added, the volume was made up to 250 ml with purified water and stirring was continued for a period of 10 minutes.
The MAS was used in this step to serve as an adherent or a solid support for the tannic acid molecules to facilitate the conversion process.

Take `CNC[C@H](O)c1cccc(O)c1` [Phenylephrine hydrochloride]: the solubility in water entry in data set [1] is given as “freely soluble”. For the compound `COc1ccc(CN(CCN(C)C)c2ccccn2)cc1` [Pyrilamine hydrochloride, N-[(4-methoxyphenyl)methyl]-N′,N′-dimethyl- -N-2-pyridinyl-1,2-ethanediamine], the solubility in water result in data set [1] is “freely soluble”. Turning to `COc1ccc(CN(CCN(C)C)c2ccccn2)cc1` [maleate salt, N-[(4-methoxyphenyl)methyl]-N′,N′-dimethyl- -N-2-pyridinyl-1,2-ethanediamine], the solubility in water entry in data set [1] was “slightly soluble”.

Take `CNC[C@H](O)c1cccc(O)c1` [phenylephrine]: in data set [2], the “solubility of the tannate salt in purified water” value is recorded as “partial solubility”.

For the compound `COc1ccc(CN(CCN(C)C)c2ccccn2)cc1` [pyrilamine], in data set [2] (purified water, at all three concentrations of tannic acid (1x, 2x, 3x the free base)), the “precipitate formation on addition to MAS/tannic acid dispersion” value was “copious amounts of precipitate”.
